From ChEMBL document CHEMBL5226299, “Targeting Lysosomal Degradation Pathways: New Strategies and Techniques for Drug Discovery” (J Med Chem, 2021)

Target: Methionine aminopeptidase 2 (Homo sapiens) (UniProt P50579)
Test: Induction of MetAP-2 degradation in human HeLa cells at 10 uM relative to control
Format: cell-based

Methionine aminopeptidase 2 (Homo sapiens), sequence (P50579 2-478 limits assumed): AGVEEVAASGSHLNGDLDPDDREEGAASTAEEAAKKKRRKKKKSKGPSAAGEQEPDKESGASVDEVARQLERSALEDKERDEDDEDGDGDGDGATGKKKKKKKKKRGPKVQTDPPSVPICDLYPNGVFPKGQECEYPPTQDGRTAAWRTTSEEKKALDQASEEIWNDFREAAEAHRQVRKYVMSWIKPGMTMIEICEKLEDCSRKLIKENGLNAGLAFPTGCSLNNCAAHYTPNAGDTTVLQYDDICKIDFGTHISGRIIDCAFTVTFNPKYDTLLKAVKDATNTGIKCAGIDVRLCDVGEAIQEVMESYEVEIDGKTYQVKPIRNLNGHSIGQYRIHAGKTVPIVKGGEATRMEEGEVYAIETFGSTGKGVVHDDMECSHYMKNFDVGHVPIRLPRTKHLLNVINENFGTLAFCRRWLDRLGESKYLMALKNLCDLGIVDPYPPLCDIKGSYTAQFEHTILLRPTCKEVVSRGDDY

CO[C@@H]1[C@H](OC(=O)NCCCOCCOCCOCCCNC(=O)[C@H](CSc2nc3c(=O)[nH]c(N)nc3n2Cc2ccc(F)cc2)NC(C)=O)CC[C@]2(CO2)[C@H]1[C@@]1(C)O[C@@H]1CC=C(C)C
Activity: 80%
